Tested on: U-87MG human glioblastoma xenografted into nude mice
Assay: Experiment 2: growth of s.c. U-87MG xenografts, with BN receptor blockade
Assay type: in vivo, human tumour in male athymic nude mice
Conditions: RC-3095 200 μg i.v. 15 min before AN-215 150 nmol kg^-1
Method: Human glioblastoma cell line U-87MG was obtained from American Type Culture Collection (Manassas, VA, USA) and cultured as described ([Pinski et al, 1994]). Male athymic (Ncr nu/nu) nude mice, approximately 6-weeks-old on arrival, were obtained from the National Cancer Institute (Frederick Cancer Research and Development Center, Frederick, MD, USA), and housed in laminar air-flow cabinets under pathogen-free conditions with a 12 h light/12 h dark schedule, and fed autoclaved standard chow and water ad libitum. Xenografts were initiated by s.c. injection of 12×10^6 U-87MG cells into the right flanks of five male nude mice. Tumours resulting after 2 weeks were aseptically dissected, mechanically minced, and 3-mm^3 pieces of tumour tissue were transplanted s.c. with a trocar needle. The take rate was 100%. All experiments were performed in accordance with institutional ethical guidelines of animal care and were essentially in agreement with [UKCCCR guidelines (1998)] for the welfare of animals in experimental neoplasia.
Experiment 2 was started when U-87MG tumours had grown to 70–84 mm^3 in volume. The animals were divided into the following treatment groups: group 1 (10 mice), control, vehicle solution; group 2 (10 mice), analogue AN-215; group 3 (five mice), unconjugated mixture of the cytotoxic radical AN-201 and BN antagonist RC-3095. All compounds were injected i.v. at 150 nmol kg^−1 of BW on days 1, 10, and 17. In addition, one group of tumour-bearing mice received an i.v. injection of 200 μg of BN antagonist RC-3095 15 min before each administration of AN-215 at a dose of 150 nmol kg^−1 of BW on days 1, 10 and 17 as in the case of group 2. The experiment was terminated on day 20 as described above.
Data are expressed as mean±s.e. Differences between mean values were evaluated by two-tailed Student's t-test, P<0.05 being considered significant.

[D-Tpi^6,Leu^13ψ(CH2NH)Leu^14]BN (6-14) [RC-3095, reference compound]
Antitumour effect after BN receptor blockade: attenuated the antitumour effect of the cytotoxic BN analogue AN-215

Reference: publication PMC2375353, “Effective treatment of experimental U-87MG human glioblastoma in nude mice with a targeted cytotoxic bombesin analogue, AN-215” (British Journal of Cancer, 2002)
